{"source": "patent US20210052358A1", "about": "“TEETH WHITENING PRODUCT CONTAINING PIEZOELECTRIC MATERIAL” (Nanjing University of Science & Technology, priority 2019, published 2021)", "key": {"[1]": {"tested_on": "rat thoracic aortic smooth muscle cells", "format": "cell-based", "conditions": "added to culture medium; final concentration: barium titanate 1 mg/mL, H2O2 15% (FIG. 6)", "experimental": "A biological toxicity testing was conducted on barium titanate powders using rat thoracic aortic smooth muscle cells. Different additives were charged into cell culture media. After culture for a period of time, biological statistics was conducted. FIG. 6(a) illustrates a cell count in a standard medium as a function of cell culture time; FIGS. 6(b) and 6(c) illustrate results after addition of barium titanate powders (final concentration: 1 mg/mL) and 30% H2O2 (final concentration: 15%) in a culture medium, respectively; FIG. 6(d) illustrates mathematical statistics of results of every day."}, "[2]": {"conditions": "after whitening for the same time period, SEM (FIG. 7)"}}, "note": "Where two headings read alike, the source gives them in different places."}
{"smiles": "OO", "note": "[H2O2, hydrogen peroxide]", "values": [{"measurement": "effect on cell growth and proliferation (cell count versus culture time)", "setting": "[1]", "result": "almost all cells in the medium die"}, {"measurement": "damage to the tooth surface / enamel", "setting": "[2]", "result": "damages the tooth surface seriously"}, {"measurement": "damage to the tooth surface / enamel", "setting": "[2]; listed as 30% H2O2", "result": "causes non-ignorable damage to the enamel on the tooth surface"}]}
